Measured values published in US20250065017A1, “Fractionating Extracellular Matrix to Modulate Bioactivity and the Host Response” (University of Pittsburgh - Of the Commonwealth System of …, priority 2014, published 2025).

What was measured:
[1] = tested on: primary rat bone marrow derived macrophages; assay: PGE2 secretion in primary BMDM; assay type: cell-based; conditions: UBM hydrogel 0.5 mg/mL 48 hours; inhibitor pre-treatment 1 hour
Procedure: Rat bone marrow mononuclear cells were matured to macrophages as previously described ([…], Forster O. Differentiation of rat bone marrow cells into macrophages under the influence of mouse L929 cell supernatant. J Leukoc Biol 1987;41(1):83-91). […] The cell pellet was resuspended in red blood cell (RBC) lysis buffer (155 mM NH4Cl, 10 mM KHCO3, 0.9% EDTA in distilled water) and incubated for 15 minutes on ice. Cell debris was removed by centrifugation and the cell pellet was resuspended in macrophage maturation media (DMEM high glucose, 10% heat inactivated FBS, 20% L929 fibroblast conditioned media, 0.5 mM MEM non-essential amino acids, 2 mM L-glutamine, 10 mM Hepes pH 7.4, 1% penicillin/streptomycin, 0.12% 50 mM 2-mercaptoethanol). Cells were seeded at a density of 1 million/mL in 6 well plates and incubated at 37° C./5% CO2. Media was changed every 2-3 days for 7 days. Matured bone marrow derived macrophages (BMDMs) were treated with 1 mL of StemPro® Accutase® (Invitrogen), incubated at 37° C. for 10 minutes, and detached with gentle pipetting. The cell suspension was collected and centrifuged for 5 mins at 1400 rpm. […] Secreted factor concentrations in the culture supernatants were determined using commercially available ELISA kits (PGE2, PGF2α, ENZO Life Sciences) and IL-1RA (R&D Systems)) according to the manufacturer's instructions.

[2] = tested on: brain derived microglia; assay: PGE2 secretion in primary microglia; assay type: cell-based, rat; conditions: UBM hydrogel 0.5 mg/mL 48 hours; inhibitor pre-treatment 1 hour
Procedure: Primary microglia from rats were obtained from postnatal day 3 rat pup brains as previously described ([…], Xiao X, Hart RP, Schwartz M. Protective autoimmunity: interferon-gamma enables microglia to remove glutamate without evoking inflammatory mediators. J Neurochem 2005;92(5):997-1009). Whole brains from postnatal day 3 Sprague Dawley rat pups (Charles River) were harvested and minced after removal of the brain stem, olfactory bulbs, and meninges. Tissue was digested for 15 min in 0.25% trypsin/EDTA at 37° C. […] The suspension was centrifuged, diluted in culture media (DMEM/F12, 10% FBS, 2 mM L-glutamine, 1% penicillin/streptomycin), and grown to confluence at 37° C./5% CO2. Culture media was replaced every 2-3 days. At day 11-12 in vitro, enriched microglia were obtained by mechanical agitation (orbital shaker, 150 rpm, 37 C) for 2 hours. The media was collected after the shake-off step and centrifuged (1400 rpm for 5 minutes). The cell pellet was resuspended in culture media (RPMI 1640, 10% FBS, 1 mM L-glutamine, 1 mM sodium pyruvate, 50 μM beta-mercaptoethanol, 1% penicillin and streptomycin) and cells were plated at a density of 500,000/mL. […] Secreted factor concentrations in the culture supernatants were determined using commercially available ELISA kits (PGE2, PGF2α, ENZO Life Sciences) and IL-1RA (R&D Systems)) according to the manufacturer's instructions.

[3] = tested on: THP1 macrophage-like cells; assay: Secreted factor analysis (ELISA); assay type: cell-based, human
Procedure: THP-1 human monocytes were obtained from the American Tissue Culture Collection (ATCC, Manassas, VA) and maintained in RPMI, 10% FBS, 1% penicillin/streptomycin, 2 mM L-glutamine, and 1 mM sodium pyruvate in a humidified atmosphere at 37° C. with 5% CO2. For experiments, 500,000 THP-1 cells/mL were plated with 320 nM phorbol 12-myristate 13-acetate (PMA) for 24 hours to induce differentiation into macrophages. Adherent macrophages were washed in PBS and placed in fresh media, followed by a 24 hour incubation to acquiesce. […] Once cells were prepared as described above, aspirin (200 µM, where appropriate) was added for 1 hour. Subsequently, UBM hydrogel (0.5 mg/mL) or pepsin control buffer (0.05 mg/mL) was added and cells were allowed to incubate for 24-72 hours. After incubation, cells were pelleted by centrifugation (700×g, 5 minutes, 4° C.), and the culture supernatants were carefully removed. Supernatants were stored at -80° C. until the time of assay. Secreted factor concentrations in the culture supernatants were determined using commercially available ELISA kits (PGE2, PGF2α, ENZO Life Sciences) and IL-1RA (R&D Systems)) according to the manufacturer's instructions.

[4] = tested on: THP1 macrophage-like cells; assay: COX2 expression by western blot; assay type: cell-based, human; conditions: Aspirin 200 μM with UBM hydrogel 0.5 mg/mL; 4, 8, 24 hours
Procedure: Cells were then treated with UBM hydrogel for 4, 8, or 24 hours. At the specified time points, cells were washed extensively with 1× PBS and lysis buffer (50 mM Tris, 20 mM NaCl, 1% Triton X-100) was added. Cells were mechanically removed from the culture dish, transferred to centrifuge tubes and incubated on ice for 10 minutes. Lysates were spun down at 14000 rpm for 20 minutes at 4° C. to remove any debris. The clarified lysate was stored at −80° C. Lysates were diluted 1:1 in 2× Laemmli Sample Buffer (Bio-Rad, Hercules, CA) and boiled at 95° C. for 5 minutes. Samples were then resolved on 9% SDS-PAGE gels (National Diagnostics) and transferred to polyvinyldifluoride (PVDF, Millipore) membranes. Membranes were blocked with 1:1 Odyssey Blocking Buffer:1×PBS (Licor) overnight at 4° C. […]

[5] = Aspirin 200 μM with UBM hydrogel 0.5 mg/mL, 48 hours

CC(=O)Oc1ccccc1C(=O)O [Aspirin]
PGE2 production [1]: reduced PGE2 production to baseline levels | PGE2 production [2]: reduced PGE2 production to baseline levels | IL-1RA secretion [3, 5]: did not cause any significant drop in IL-1RA secretion | production of PGE2 and PGF2α [3, 5]: reduced production of both PGE2 and PGF2α down to basal levels | PGE2 production ([3]; THP1, UBM hydrogel 0.5 mg/mL 48 hours, inhibitor pre-treatment 1 hour): reduced PGE2 production to baseline levels | change in COX2 expression [4]: did not cause any changes in COX2 expression
